From article PMC4041848, “Differential Effects of Omeprazole and Lansoprazole Enantiomers on Aryl Hydrocarbon Receptor in Human Hepatocytes and Cell Lines” (PLoS ONE, 2014)
Read-outs that look alike come from different tables or passages of the source.

Assays:
[1] = system: AZ-AHR cells; test: MTT cytotoxicity test in AZ-AHR reporter cells; conditions: for cytotoxicity: AZ-AHR cells, 24 h, MTT, concentrations up to 250 µM
Experimental: (§1) A stably transfected gene reporter cell line AZ-AHR, derived from human hepatoma HepG2 cells transfected with a construct containing several AhR binding sites upstream of a luciferase reporter gene, was used for assessment of AhR transcriptional activity. Cells were incubated for 24 h with tested compounds and/or vehicle (DMSO; 0.1% v/v), in the presence or absence of TCDD (10 nM; AZ-AHR cells) or DEX (100 nM; AZ-GR cells). After the treatments, cells were lysed and luciferase activity was measured. In parallel, cell viability was determined by conventional MTT test.
(§2) In the first series of experiments, the cytotoxicity of tested compounds was assessed in gene reporter cell line AZ-AHR. For this purpose, the cells were incubated for 24 h with S-OME, R-OME, rac-OME, S-LAN, R-LAN and rac-LAN at concentration ranging from 100 pM to 250 µM. The vehicle was DMSO (0.1% v/v). After the treatment, a conventional MTT test was performed.
(§3) Figure 1 Effect of omeprazole and lansoprazole enantiomers on transcriptional activity of aryl hydrocarbon receptor AhR in human gene reporter cell line AZ-AHR. The cells were seeded in 96-well plates and stabilized for 16 h. Panels A and B: Cells were incubated for 24 h with S-OME, R-OME, rac-OME, S-LAN, R-LAN and rac-LAN at concentrations ranging from 10^−10 M to 10^−4 M. The vehicle was DMSO (0.1% v/v). After the treatment, MTT test was performed and absorbance was measured at 540 nm. Treatments were performed in triplicates. The data are the mean from experiments from six different passages of cells and are expressed as a percentage of viability of control cells. The values of IC50 were calculated and are indicated in a figure. Panels C - F: AZ-AHR cells were incubated for 24 h with S-OME, R-OME, rac-OME, S-LAN, R-LAN and rac-LAN at concentrations ranging from 10^−10 M to 10^−4 M in the absence (Panels C and D - agonist mode) or in the presence (Panels E and F- antagonist mode) of TCDD (5 nM). The vehicle was DMSO (0.1% v/v). After the treatments, cells were lysed and luciferase activity was measured. Treatments were performed in triplicates in five (agonist mode) or four (antagonist mode) independent cell passages. […] Data are expressed as a fold induction of luciferase activity over control cells (Panels C and D - agonist mode) or as a percentage of maximal induction attained by TCDD (Panels E and F- antagonist mode).

[2] = system: CYP1A2 mRNA; test: CYP1A2 mRNA induction in primary human hepatocytes (qRT-PCR); conditions: hepatocyte culture HH52, 24 h, 100 µM
From the text: (§4) Primary human hepatocytes used in this study were obtained from two sources: (i) from multiorgan donor HH52; the use of liver cells of donor HH52 was approved by “Ethical committee at the Faculty Hospital Olomouc”,and it was in accordance with Transplantation law #285/2002 Sb; “Ethical committee at the Faculty Hospital Olomouc” waived the authors from obtaining consent from the next of kin, regarding human hepatocytes obtained from liver donor HH52. (ii) long-term human hepatocytes in monolayer Batch HEP220770 (person), Batch HEP220774 (person) were purchased from Biopredic International (Biopredic International, Rennes, France). Cells were cultured in serum-free medium. Cultures were maintained at 37°C and 5% CO2 in a humidified incubator.
Total RNA was isolated using TRI Reagent (Molecular Research Center, Cincinnati, OH, USA). cDNA was synthesized from 1000 ng of total RNA using M-MLV Reverse Transcriptase (Finnzymes, Espoo, Finland) at 42°C for 60 min in the presence of random hexamers (Takara, Shiga, Japan). qRT-PCR was carried out using LightCycler FastStart DNA MasterPLUS SYBR Green I (Roche Diagnostic Corporation, Prague, Czech Republic) on a Light Cycler 480 II apparatus (Roche Diagnostic Corporation). CYP1A1, CYP1A2 and GAPDH mRNAs were determined as described previously. Measurements were performed in triplicates. […]

[3] = system: aryl hydrocarbon receptor AhR; test: AhR gene reporter assay, agonist mode
Experimental: as §1, §3
Gene reporter assays were performed in two different experimental layouts. […] In antagonist mode, cells were incubated with increasing concentrations of tested compounds in combination with model agonist (TCDD; 5 nM), and half-maximal inhibitory concentrations (IC50) were calculated. […] The efficacy was calculated at concentration of compounds of 100 µM and compared to 5 nM TCDD (Figure 1C).

[4] = system: aryl hydrocarbon receptor AhR; test: AhR gene reporter assay, antagonist mode (with TCDD); conditions: read-out: AhR antagonist IC50; AZ-AHR cells, 24 h, in the presence of TCDD (5 nM), average of four passages
Experimental: as §1
Figure 1 Effect of omeprazole and lansoprazole enantiomers on transcriptional activity of aryl hydrocarbon receptor AhR in human gene reporter cell line AZ-AHR. The cells were seeded in 96-well plates and stabilized for 16 h. […] After the treatment, MTT test was performed and absorbance was measured at 540 nm. […] The data are the mean from experiments from six different passages of cells and are expressed as a percentage of viability of control cells. The values of IC50 were calculated and are indicated in a figure. […] After the treatments, cells were lysed and luciferase activity was measured. […] Data are expressed as a fold induction of luciferase activity over control cells (Panels C and D - agonist mode) or as a percentage of maximal induction attained by TCDD (Panels E and F- antagonist mode). […]

[5] = system: CYP1A2 protein; test: CYP1A2 protein induction in primary human hepatocytes (western blot); conditions: 10 µM
From the text: as §4
Total protein extracts were prepared from cells cultured on 6-well plates. Cells were washed twice with ice-cold PBS and scraped into 1 ml of PBS. The suspension was centrifuged (4500 RPM/5 min/4°C) and the pellet was resuspended in 150 µl of ice-cold lysis buffer (150 mM NaCl; 10 mM Tris pH 7.2; 0.1% (w/v) SDS; anti-protease cocktail, 1% (v/v) Triton X-100; anti-phosphatase cocktail, 1% (v/v) sodium deoxycholate; 5 mM EDTA). […] Supernatant was collected and the protein content was determined by the Bradford reagent. […] The density of bands was measured by densitometry. […]
Figure 3 Effects of omeprazole and lansoprazole enantiomers on CYP1A1 mRNA, protein and EROD activity in primary human hepatocytes. […] RT-PCR data are the mean ± SD from triplicate measurements and are expressed as fold induction over vehicle-treated cells. […] Density of bands in western blots was quantified by densitometry and the values are indicated along with respective blots. […] Upper bar graph: An activity of 7-ethoxyresorufin- O-deethylase (EROD) was measured by fluorescent spectrophotometry with 530 nm excitation and 590 nm emission filters. […] The data are expressed as fold induction over the value from control cells. Lower bar graph: A conventional MTT test was performed and absorbance was measured at 540 nm. […] The data are expressed as percentage of viability of control cells.

[6] = system: primary human hepatocytes; test: MTT cytotoxicity test in primary human hepatocytes; conditions: 100 µM
Experimental: (§5) Figure 3 Effects of omeprazole and lansoprazole enantiomers on CYP1A1 mRNA, protein and EROD activity in primary human hepatocytes. Panel A and Panel B: RT-PCR analyses of CYP1A1 and CYP1A2 mRNA and western blots of CYP1A1 and CYP1A2 from two different cultures (HH52 and Hep220770) are shown. Human hepatocytes were incubated for 24 h (mRNA analysis) or 48 (protein analysis) with S-OME, R-OME, rac-OME, S-LAN, R-LAN, rac-LAN, TCDD and vehicle (DMSO; 0.1% v/v). RT-PCR data are the mean ± SD from triplicate measurements and are expressed as fold induction over vehicle-treated cells. Data were normalized to GAPDH mRNA levels. Density of bands in western blots was quantified by densitometry and the values are indicated along with respective blots. Panel C: EROD and cytotoxicity: Human hepatocytes (culture Hep220774) were treated for 24 h with S-OME, R-OME, rac-OME, S-LAN, R-LAN, rac-LAN, TCDD and vehicle (DMSO; 0.1% v/v). Upper bar graph: An activity of 7-ethoxyresorufin- O-deethylase (EROD) was measured by fluorescent spectrophotometry with 530 nm excitation and 590 nm emission filters. Treatments were performed in triplicates. The data are expressed as fold induction over the value from control cells. Lower bar graph: A conventional MTT test was performed and absorbance was measured at 540 nm. […] The data are expressed as percentage of viability of control cells. […]

[7] = MTT cytotoxicity test in AZ-AHR reporter cells; conditions: human
Experimental: as §1, §2, §3

[8] = MTT cytotoxicity test in primary human hepatocytes; conditions: female, human, primary human hepatocytes, culture Hep220774
Experimental: as §5

[9] = system: CYP1A1 mRNA; test: CYP1A1 mRNA induction in primary human hepatocytes (qRT-PCR); conditions: hepatocyte culture Hep220770, 24 h, 100 µM
From the text: as §4
(§6) Total RNA was isolated using TRI Reagent (Molecular Research Center, Cincinnati, OH, USA). cDNA was synthesized from 1000 ng of total RNA using M-MLV Reverse Transcriptase (Finnzymes, Espoo, Finland) at 42°C for 60 min in the presence of random hexamers (Takara, Shiga, Japan). qRT-PCR was carried out using LightCycler FastStart DNA MasterPLUS SYBR Green I (Roche Diagnostic Corporation, Prague, Czech Republic) on a Light Cycler 480 II apparatus (Roche Diagnostic Corporation). CYP1A1, CYP1A2 and GAPDH mRNAs were determined as described previously. Measurements were performed in triplicates. Gene expression was normalized to GAPDH as a housekeeping gene.
We examined a capability of omeprazole and lansoprazole to induce CYP1A1 and CYP1A2 mRNA and protein in primary human hepatocytes, which is a more physiological and metabolically competent cell model. Human hepatocytes were treated for 24 h or 48 h with TCDD (5 nM), vehicle (DMSO; 0.1% V/V) and tested compounds.
Figure 3 Effects of omeprazole and lansoprazole enantiomers on CYP1A1 mRNA, protein and EROD activity in primary human hepatocytes. Panel A and Panel B: RT-PCR analyses of CYP1A1 and CYP1A2 mRNA and western blots of CYP1A1 and CYP1A2 from two different cultures (HH52 and Hep220770) are shown. Human hepatocytes were incubated for 24 h (mRNA analysis) or 48 (protein analysis) with S-OME, R-OME, rac-OME, S-LAN, R-LAN, rac-LAN, TCDD and vehicle (DMSO; 0.1% v/v). RT-PCR data are the mean ± SD from triplicate measurements and are expressed as fold induction over vehicle-treated cells. Data were normalized to GAPDH mRNA levels. Density of bands in western blots was quantified by densitometry and the values are indicated along with respective blots. Panel C: EROD and cytotoxicity: Human hepatocytes (culture Hep220774) were treated for 24 h with S-OME, R-OME, rac-OME, S-LAN, R-LAN, rac-LAN, TCDD and vehicle (DMSO; 0.1% v/v). Upper bar graph: An activity of 7-ethoxyresorufin- O-deethylase (EROD) was measured by fluorescent spectrophotometry with 530 nm excitation and 590 nm emission filters. Treatments were performed in triplicates. The data are expressed as fold induction over the value from control cells. Lower bar graph: A conventional MTT test was performed and absorbance was measured at 540 nm. Treatments were performed in triplicates. The data are expressed as percentage of viability of control cells.

[10] = system: CYP1A1 mRNA; conditions: HepG2, 24 h, 5 nM, vs vehicle-treated cells
Experimental: as §6
Treatments were performed in triplicates.

[11] = system: CYP1A1 catalytic activity (EROD); test: EROD catalytic activity in HepG2 cells; conditions: HepG2, 24 h, 5 nM
[12] = system: CYP1A1/1A2 enzymes (EROD); test: EROD activity in primary human hepatocytes; conditions: hepatocyte culture Hep220774, 24 h, 5 nM
Experimental: as §5

[13] = system: CYP1A1 protein; test: CYP1A1 protein induction in primary human hepatocytes (western blot); conditions: hepatocyte culture HH52, 48 h
From the text: Primary human hepatocytes used in this study were obtained from two sources: (i) from multiorgan donor HH52; the use of liver cells of donor HH52 was approved by “Ethical committee at the Faculty Hospital Olomouc”,and it was in accordance with Transplantation law #285/2002 Sb; “Ethical committee at the Faculty Hospital Olomouc” waived the authors from obtaining consent from the next of kin, regarding human hepatocytes obtained from liver donor HH52. (ii) long-term human hepatocytes in monolayer Batch HEP220770 (person), Batch HEP220774 (person) were purchased from Biopredic International (Biopredic International, Rennes, France). Cells were cultured in serum-free medium. […]
Total protein extracts were prepared from cells cultured on 6-well plates. […] Supernatant was collected and the protein content was determined by the Bradford reagent. […] The density of bands was measured by densitometry. […]
Figure 3 Effects of omeprazole and lansoprazole enantiomers on CYP1A1 mRNA, protein and EROD activity in primary human hepatocytes. […] RT-PCR data are the mean ± SD from triplicate measurements and are expressed as fold induction over vehicle-treated cells. […] Density of bands in western blots was quantified by densitometry and the values are indicated along with respective blots. […] The data are expressed as fold induction over the value from control cells. […]

[14] = AZ-AHR cells, 24 h, compared to 5 nM TCDD, calculated at 100 µM compound (stated for omeprazole)

COc1ccc2nc([S@+]([O-])Cc3ncc(C)c(OC)c3C)[nH]c2c1 [R-OME, R-omeprazole]
cytotoxicity [1]: not cytotoxic
CYP1A2 mRNA induction [2]: 71 % of TCDD induction
AhR agonist efficacy [3]: 48.6±26.8%
EC50 ([3]; read-out: AhR agonist EC50, AZ-AHR cells, 24 h, luciferase, average of five passages): 35.1 ± 3.7 µM
IC50 [4]: 54.8 ± 25.9 µM

Cc1c(OCC(F)(F)F)ccnc1C[S@+]([O-])c1nc2ccccc2[nH]1 [S-LAN, S-lansoprazole]
IC50 [1]: 169 µM
CYP1A2 protein induction ([5]; hepatocyte culture HH52, 48 h): strong induction
EC50 [3]: 1.9 ± 0.3 µM
AhR agonist efficacy [3, 14]: 26.3±8.7%
viability of the cells [6]: 64%

COc1ccc2nc([S@@+]([O-])Cc3ncc(C)c(OC)c3C)[nH]c2c1 [S-OME, S-omeprazole]
cytotoxicity [1]: not cytotoxic
IC50 at 24 h [7]: > 250 µM
CYP1A2 protein induction ([5]; both hepatocyte cultures (HH52, Hep220770), 48 h): strongly induced
AhR agonist efficacy [3, 14]: 44.8±11.8%
EC50 at 24 h ([3]; human): 22.9 ± 7.9 µM
viability at 24 h, 250 µM [8]: 60%
CYP1A1 mRNA induction [9]: 736 fold

Clc1cc2c(cc1Cl)Oc1cc(Cl)c(Cl)cc1O2 [TCDD, 2,3,7,8-tetrachlorodibenzo-p-dioxin]
CYP1A1 mRNA induction [10]: approximately 230 fold
EROD activity, average increase [11]: 22-23 fold
induction of EROD activity [12]: approximately 15 fold
induction of AhR-dependent luciferase activity, average ([3]; 5 nM TCDD, five consecutive passages, vs vehicle-treated cells): 354 fold
CYP1A1 protein induction [13]: drastic increase
